Assay results: PubChem BioAssay (NCI)
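48-hour exposure; five concentrations; linearly interpolated endpoints. Here, GI50 denotes the concentration required for 50% inhibition of growth. TGI: total growth inhibition.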

Tests used:
Assay in all cases: DTP human tumour cell line panel, 48 h
SW-620 colon = tested on: SW-620 colon
HL-60(TB) leukemia = tested on: HL-60(TB) leukemia
U251 CNS = tested on: U251 CNS
SF-539 CNS = tested on: SF-539 CNS
SK-OV-3 ovarian = tested on: SK-OV-3 ovarian
A549 NSCLC = tested on: A549 NSCLC
CAKI-1 renal = tested on: CAKI-1 renal
SK-MEL-2 melanoma = tested on: SK-MEL-2 melanoma
OVCAR-8 ovarian = tested on: OVCAR-8 ovarian
M14 melanoma = tested on: M14 melanoma

| SMILES | TGI (SW-620 colon) [µM] | TGI (HL-60(TB) leukemia) [µM] | TGI (U251 CNS) [µM] | TGI (SF-539 CNS) [µM] | TGI (SK-OV-3 ovarian) [µM] | TGI (A549 NSCLC) [µM] | TGI (CAKI-1 renal) [µM] | TGI (SK-MEL-2 melanoma) [µM] | TGI (OVCAR-8 ovarian) [µM] | TGI (M14 melanoma) [µM] | GI50 (SW-620 colon) [µM] | GI50 (HL-60(TB) leukemia) [µM] | GI50 (U251 CNS) [µM] | GI50 (SF-539 CNS) [µM] | GI50 (SK-OV-3 ovarian) [µM] | GI50 (A549 NSCLC) [µM] | GI50 (CAKI-1 renal) [µM] | GI50 (SK-MEL-2 melanoma) [µM] | GI50 (OVCAR-8 ovarian) [µM] | GI50 (M14 melanoma) [µM] |
| --- | --- | --- | --- | --- | --- | --- | --- | --- | --- | --- | --- | --- | --- | --- | --- | --- | --- | --- | --- | --- |
| CN=C(N)/N=C(\N)Nc1cc2ccccc2c2ccccc12 | 34 | 19.8 | 28.5 | 29.4 | 32.9 | 30.8 | 31.2 | 32.3 | 33.8 | 33.4 | – | – | – | – | – | – | – | – | – | – |
| CCCC1=C(C(=O)OCC)C(c2ccccc2OC)C(C#N)=C(N)O1 (configuration not stated) | > 100 | > 100 | > 100 | > 100 | > 100 | > 100 | > 100 | > 100 | > 100 | > 100 | 27.8 | 33.7 | 44.7 | 39.8 | > 100 | > 100 | 57.5 | > 100 | 43.8 | 34.2 |
| CCOC(=O)C(=O)Nc1c(CC)cccc1C(C)CC (configuration not stated) | > 100 | > 100 | > 100 | > 100 | > 100 | > 100 | > 100 | > 100 | > 100 | > 100 | – | – | – | – | – | – | – | – | – | – |
| N#CCCOCN(CO)c1nc(N(CO)COCCC#N)nc(N(CO)COCCC#N)n1 | 29.5 | 41.6 | > 100 | 8.63 | > 100 | 58.3 | – | 38.6 | 34.7 | 45.1 | – | – | – | – | – | – | – | – | – | – |
| CC(=O)N1CC(=O)NC1=S | > 100 | > 100 | > 100 | > 100 | > 100 | > 100 | > 100 | > 100 | > 100 | > 100 | – | – | – | – | – | – | – | – | – | – |
| COc1cc2c(cc1OC)C1Cc3cc(OC)c(OC)cc3C(C2)O1 | > 100 | – | > 100 | > 100 | > 100 | > 100 | > 100 | > 100 | > 100 | > 100 | – | – | – | – | – | – | – | – | – | – |
| Nc1cccc2c1C1=NNC(=O)CC1C2 (configuration not stated) | > 100 | > 100 | > 100 | > 100 | > 100 | > 100 | > 100 | > 100 | > 100 | – | – | – | – | – | – | – | – | – | – | – |
| NC(=O)Nc1ccc(C(=O)NCCCNC(=O)c2ccc(NC(N)=O)cc2)cc1 | > 100 | > 100 | > 100 | > 100 | – | > 100 | > 100 | > 100 | > 100 | > 100 | – | – | – | – | – | – | – | – | – | – |
| Cc1c2cc[n+](C)cc2c(C)c2c1[nH]c1ccc(Cl)cc12 | 19.4 | 21.5 | 1.15 | 2.32 | 53.3 | 4.15 | 53.4 | 9.6 | 15.5 | 40.6 | – | – | – | – | – | – | – | – | – | – |
| O=C(Nc1cccc([N+](=O)[O-])c1)C(=O)C(C(=O)c1ccccc1F)C1OC(=O)C2C=CC=CC21 (configuration not stated) | > 100 | 64 | 77.7 | 67.5 | > 100 | > 100 | > 100 | > 100 | > 100 | > 100 | – | – | – | – | – | – | – | – | – | – |
| COc1cc(NC(=O)CSc2nc3ccccc3c(=O)n2CCc2ccccc2)cc(OC)c1OC | – | > 100 | 5.2 | – | 3.69 | – | – | 6.94 | > 100 | > 100 | – | > 100 | 2.1 | – | 1.93 | – | – | 2.32 | 2.7 | 5.49 |
| CNS(=O)(=O)c1ccc2[nH]c(O)c(C3=Nc4ccccc4C3=O)c2c1 | > 100 | > 100 | 39.8 | – | > 100 | > 100 | > 100 | > 100 | – | > 100 | – | – | – | – | – | – | – | – | – | – |
| O=C(NCCNc1nccc(-c2c(-c3cccc(O)c3)nc3sccn23)n1)Nc1cccc(C(F)(F)F)c1 | 13.4 | 6.03 | 23.6 | 36.9 | – | 8.44 | 50.5 | 6.07 | 11 | 3.39 | 3.84 | 2.85 | 4.95 | 13.1 | – | 2.98 | 14.2 | 2.8 | 3.56 | 1.79 |
| Cc1ccc2ccc3ccc(C)nc3c2n1 | > 100 | > 100 | > 100 | > 100 | > 100 | > 100 | > 100 | > 100 | > 100 | > 100 | – | – | – | – | – | – | – | – | – | – |
| C[C@H](N[C@H]1CCC[C@]1(O)C#Cc1ccc2c(c1)OCO2)c1ccccc1 | – | > 25 | > 25 | – | > 25 | > 25 | > 25 | > 25 | > 25 | > 25 | – | – | – | – | – | – | – | – | – | – |
